Assay results as given in patent publication US20120225061A1, “TETRASUBSTITUTED CYCLOHEXYL COMPOUNDS AS KINASE INHIBITORS” (priority 2011, published 2012).

Columns and labels:
Pim1 kinase = Pim1 kinase (Homo sapiens, UniProt P11309); experiment: KinaseGlo Pim1 ATP depletion assay; type: biochemical; settings: Table 4, 2.5 nM PIM1, 20 μM ATP, 40 μM BAD peptide
Procedure: The activity of PIM1 is measured using a luciferase-luciferin based ATP detection reagent to quantify ATP depletion resulting from kinase-catalyzed phosphoryl transfer to a peptide substrate. Compounds to be tested are dissolved in 100% DMSO and directly distributed into white 384-well plates at 0.5 μl per well. […] After 15 minutes, 10 μl of 40 μM ATP in assay buffer is added. […] The reaction is performed until approximately 50% of the ATP is depleted, then stopped with the addition of 20 μl KinaseGlo Plus (Promega Corporation) solution. The stopped reaction is incubated for 10 minutes and the remaining ATP detected via luminescence on the Victor2 (Perkin Elmer).

Pim2 kinase = Pim2 kinase (Homo sapiens, UniProt Q9P1W9); experiment: KinaseGlo Pim2 ATP depletion assay; type: biochemical; settings: Table 4, 5 nM PIM2, 4 μM ATP, 10 μM BAD peptide
Procedure: (§1) The activity of PIM2 is measured using a luciferase-luciferin based ATP detection reagent to quantify ATP depletion resulting from kinase-catalyzed phosphoryl transfer to a peptide substrate. Compounds to be tested are dissolved in 100% DMSO and directly distributed into white 384-well plates at 0.5 μl per well. […] After 15 minutes, 10 μl of 8 μM ATP in assay buffer is added. Final assay concentrations are 5 nM PIM2, 4 μM ATP, 10 μM BAD peptide and 2.5% DMSO. The reaction is performed until approximately 50% of the ATP is depleted, then stopped with the addition of 20 μl KinaseGlo Plus (Promega Corporation) solution. The stopped reaction is incubated for 10 minutes and the remaining ATP detected via luminescence on the Victor2 (Perkin Elmer).

Pim3 kinase = Pim3 kinase (Homo sapiens, UniProt Q86V86); experiment: KinaseGlo Pim3 ATP depletion assay; type: biochemical; settings: Table 4, 40 μM ATP, 100 μM BAD peptide
Procedure: as §1, with “of PIM3” for “of PIM2”, “of 80” for “of 8”, “nM PIM1, 40” for “nM PIM2, 4”, “ATP, 100” for “ATP, 10”, “stopped by” for “stopped with”

[1] = system: KMS11 (human myeloma cell line); experiment: Cell proliferation assay (CellTiter-Glo) in KMS11 cells; type: cell-based; settings: KMS-11, 72 h, Table 4, 3 days, read-out: KMS11-luc EC50
Method in brief: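 KMS11 cells at 2000 per well in IMDM/10% FBS were exposed to compound for 3 days. Viability was read by CellTiter-Glo luminescence.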

Chain of Pim1 kinase (P11309 whole entry): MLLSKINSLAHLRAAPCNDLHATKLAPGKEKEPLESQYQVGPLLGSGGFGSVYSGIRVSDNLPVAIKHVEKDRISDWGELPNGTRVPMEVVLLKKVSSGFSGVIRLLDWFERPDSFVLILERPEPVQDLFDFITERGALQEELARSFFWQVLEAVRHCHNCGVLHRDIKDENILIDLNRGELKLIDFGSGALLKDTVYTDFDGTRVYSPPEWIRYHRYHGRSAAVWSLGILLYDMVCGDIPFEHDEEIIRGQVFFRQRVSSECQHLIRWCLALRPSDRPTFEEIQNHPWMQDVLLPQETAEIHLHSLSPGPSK
Chain of Pim2 kinase (Q9P1W9 whole entry): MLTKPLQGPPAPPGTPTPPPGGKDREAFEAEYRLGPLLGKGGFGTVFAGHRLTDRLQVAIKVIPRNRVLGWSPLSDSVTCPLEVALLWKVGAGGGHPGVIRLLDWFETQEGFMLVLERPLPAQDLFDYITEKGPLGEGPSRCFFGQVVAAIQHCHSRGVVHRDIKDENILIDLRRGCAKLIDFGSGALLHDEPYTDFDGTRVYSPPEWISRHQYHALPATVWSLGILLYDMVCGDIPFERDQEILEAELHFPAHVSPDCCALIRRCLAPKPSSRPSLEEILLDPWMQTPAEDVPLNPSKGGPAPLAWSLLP

IC50 (Pim1 kinase) [nM] | IC50 (Pim2 kinase) [nM] | IC50 (Pim3 kinase) [nM] | EC50 [1] [nM] | SMILES
0.4 | 1 | 1.4 | 880 | CC[C@]1(O)[C@H](O)C[C@H](c2ccncc2NC(=O)c2nc(-c3c(F)cccc3F)ccc2N)C[C@@H]1C [Example 32, 3-amino-6-(2,6-difluorophenyl)-N-(4-((1R,3R,4R,5S)-4-ethyl-3,4-dihydroxy-5-methylcyclohexyl)pyridin-3-yl) picolinamide]
0.5 | 1.1 | 1.8 | 580 | CC[C@]1(O)[C@H](O)C[C@H](c2ccncc2NC(=O)c2nc(-c3c(F)cccc3F)c(F)cc2N)C[C@@H]1C [Example 33, 3-amino-6-(2,6-difluorophenyl)-N-(4-((1R,3R,4R,5S)-4-ethyl-3,4-dihydroxy-5-methylcyclohexyl)pyridin-3-yl)-5-fluoropicolinamide]
0.6 | 1.3 | 1.7 | 610 | CC[C@]1(O)[C@H](O)C[C@H](c2ccncc2NC(=O)c2nc(-c3c(F)cccc3F)ncc2N)C[C@@H]1C [Example 34, 5-amino-2-(2,6-difluorophenyl)-N-(4-((1R,3R,4R,5S)-4-ethyl-3,4-dihydroxy-5-methylcyclohexyl)pyridin-3-yl) pyrimidine-4-carboxamide]
49.5 | 676 | 150 | ≥ 10000 | CC[C@]1(O)[C@H](C)C[C@H](c2ccncc2NC(=O)c2nc(-c3c(F)cccc3F)ncc2N)C[C@@H]1O [Example 35, 5-amino-2-(2,6-difluorophenyl)-N-(4-((1S,3S,4S,5R)-4-ethyl-3,4-dihydroxy-5-methylcyclohexyl)pyridin-3-yl) pyrimidine-4-carboxamide]

Second part, the compound before the results:

SMILES | IC50 (Pim1 kinase) [nM] | IC50 (Pim2 kinase) [nM] | IC50 (Pim3 kinase) [nM] | EC50 [1] [nM]
C[C@H]1C[C@@H](c2ccncc2NC(=O)c2ccc(F)c(-c3c(F)cccc3F)n2)C[C@@H](O)C1(O)CO (stereo in doubt) [Example 59, 6-(2,6-difluorophenyl)-N-(4-((1R,3R,4R,5S)-3,4-dihydroxy-4-(hydroxymethyl)-5-methylcyclohexyl)pyridin-3-yl)-5-fluoropicolinamide] | 0.3 | 1.5 | 1.3 | 1070
C[C@H]1C[C@@H](c2ccncc2NC(=O)c2cncc(-c3ccccc3)n2)C[C@@H](O)[C@]1(C)O [Example 36, N-(4-((1R,3R,4R,5S)-3,4-dihydroxy-4,5-dimethylcyclohexyl)pyridin-3-yl)-6-phenylpyrazine-2-carboxamide] | 525 | 5410 | 307 | –
C[C@H]1C[C@@H](c2ccncc2NC(=O)c2nc(-c3ccccc3)cnc2N)C[C@@H](O)[C@]1(C)O [Example 37, 3-amino-N-(4-((1R,3R,4R,5S)-3,4-dihydroxy-4,5-dimethylcyclohexyl)pyridin-3-yl)-6-phenylpyrazine-2-carboxamide] | 1.3 | 4.9 | 2.5 | –
C[C@H]1C[C@@H](c2ccncc2NC(=O)c2nc(Br)ccc2N)C[C@@H](O)[C@]1(C)O [Example 38, 3-amino-6-bromo-N-(4-((1R,3R,4R,5S)-3,4-dihydroxy-4,5-dimethylcyclohexyl)pyridin-3-yl) picolinamide] | 3.6 | 24.3 | 9.3 | ≥ 10000
C[C@H]1C[C@@H](c2ccncc2NC(=O)c2ccnc(-c3c(F)cccc3F)n2)C[C@@H](O)[C@@]1(O)CO [Example 39, 2-(2,6-difluorophenyl)-N-(4-((1R,3R,4S,5S)-3,4-dihydroxy-4-(hydroxymethyl)-5-methylcyclohexyl)pyridin-3-yl) pyrimidine-4-carboxamide] | 4.7 | 25.5 | 4.5 | ≥ 10000
CC[C@]1(O)[C@H](O)C[C@H](c2ccncc2NC(=O)c2ccc(F)c(-c3c(F)cccc3F)n2)C[C@@H]1C [Example 41, 6-(2,6-difluorophenyl)-N-(4-((1R,3R,4R,5S)-4-ethyl-3,4-dihydroxy-5-methylcyclohexyl)pyridin-3-yl)-5-fluoropicolinamide] | 0.9 | 2.3 | 2.9 | –
